Laboratory results taken from patent US20230174523A1, “BENZENESULFONAMIDE DERIVATIVES AS TRAP1 MODULATORS AND USES THEREOF” (Amathus Therapeutics, Inc., priority 2020, published 2023).

Target: T1, TRAP1 enzyme (Homo sapiens, UniProt Q12931)
T1 sequence (Q12931 60-704): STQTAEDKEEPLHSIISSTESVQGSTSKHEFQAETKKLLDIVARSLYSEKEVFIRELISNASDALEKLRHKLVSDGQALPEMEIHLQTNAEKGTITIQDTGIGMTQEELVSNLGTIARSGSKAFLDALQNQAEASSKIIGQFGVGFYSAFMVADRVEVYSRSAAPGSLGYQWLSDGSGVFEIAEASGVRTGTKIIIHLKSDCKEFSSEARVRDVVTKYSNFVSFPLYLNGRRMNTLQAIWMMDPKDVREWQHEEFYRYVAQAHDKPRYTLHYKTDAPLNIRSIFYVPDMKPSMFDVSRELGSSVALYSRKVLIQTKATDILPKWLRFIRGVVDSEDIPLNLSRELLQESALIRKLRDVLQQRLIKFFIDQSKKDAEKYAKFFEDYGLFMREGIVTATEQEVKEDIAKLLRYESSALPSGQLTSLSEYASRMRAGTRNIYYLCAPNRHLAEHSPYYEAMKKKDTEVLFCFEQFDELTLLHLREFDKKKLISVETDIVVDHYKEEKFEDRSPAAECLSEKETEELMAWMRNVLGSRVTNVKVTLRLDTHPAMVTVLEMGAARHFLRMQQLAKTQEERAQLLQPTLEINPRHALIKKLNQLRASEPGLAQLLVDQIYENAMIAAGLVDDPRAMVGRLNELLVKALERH
Experiment: ADP Glo assay of TRAP1 ATPase activity
Type: biochemical
Details: TRAP1 ATPase activation, 150 nM Trap1, 20 μM ATP, geometric mean; read-out: ADP GLO DRC: GeoMean EC50
Outline: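 150 nM TRAP1 preincubated with compound (0.79–100 μM) 30 min at 37° C in Pipes pH 7.5 buffer (0.05 mM MgCl2, 40 mM KCl), then 20 μM ATP added for 60 min at 37° C. ADP quantified by ADP-Glo luminescence against ATP/ADP standard curve. Emax and EC50 from sigmoidal fit.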

Structure (SMILES)	EC50 [µM]
COc1ccc2oc(C(=O)Nc3ccc(OC)c(S(=O)(=O)Nc4c(C)cccc4C)c3)cc2c1 [Compound 1112]	< 10
COc1ccc(NC(=O)c2cnc(OC)c(C(F)(F)F)c2)cc1S(=O)(=O)Nc1c(C)cccc1C [Compound 1073]	< 10
COc1ccc(NC(=O)c2ccc3nc(C)ccc3c2)cc1S(=O)(=O)Nc1c(C)cccc1C [Compound 1118]	10 to 20
COc1ccc(NC(=O)c2cnc(-c3cccs3)[nH]2)cc1S(=O)(=O)Nc1ccc(Cl)cc1 [Compound 1938]	< 10
COc1ccc(NC(=O)c2ccc3ncn(C)c3c2)cc1S(=O)(=O)Nc1c(C)cccc1C [Compound 1238]	20 to 100
O=C(Nc1ccc(F)c(S(=O)(=O)Nc2ccc(Cl)cc2)c1)c1cccc(-n2cncn2)c1 [Compound 1220]	20 to 100
COc1ccc(NC(=O)c2ccncc2-c2ccccc2)cc1S(=O)(=O)Nc1c(C)cccc1C [Compound 1267]	20 to 100
COc1ccc(NC(=O)c2cc(-c3ccccc3)[nH]n2)cc1S(=O)(=O)Nc1c(C)cccc1C [Compound 1258]	< 10
COc1ccc(NC(=O)c2ccnn2-c2ccccc2)cc1S(=O)(=O)Nc1c(C)cccc1C [Compound 1061]	10 to 20
COc1ccc(NC(=O)c2cccc(-c3noc(C)n3)c2)cc1S(=O)(=O)Nc1c(C)cccc1C [Compound 1243]	< 10
COc1ccc(NC(=O)c2ccc3c(c2)C2CCCS2(=O)=N3)cc1S(=O)(=O)Nc1c(C)cccc1C (centres unmarked) [Compound 1016]	20 to 100
COc1ccc(NC(=O)c2cc3ccccc3n2C)cc1S(=O)(=O)Nc1c(C)cccc1C [Compound 1170]	< 10
COc1ccc(NC(=O)c2cc(-c3ccnn3C)c(Cl)s2)cc1S(=O)(=O)Nc1c(C)cccc1C [Compound 1079]	< 10
Cc1onc(-c2ccccc2Cl)c1C(=O)Nc1ccc(F)c(S(=O)(=O)Nc2ccc(Cl)cc2)c1 [Compound 728]	10 to 20
COc1ccc(NC(=O)c2cccc(-c3cncnc3)c2)cc1S(=O)(=O)Nc1c(C)cccc1C [Compound 1248]	20 to 100
COc1ccc(NC(=O)c2ccc(C)nc2OC)cc1S(=O)(=O)Nc1ccc(Cl)cc1 [Compound 1963]	20 to 100
COc1ccc(NC(=O)c2ccc(S(=O)(=O)N(C)C)cc2)cc1S(=O)(=O)Nc1c(C)cccc1C [Compound 1120]	20 to 100
COc1ccc(NC(=O)c2ncc(-c3ccccc3)o2)cc1S(=O)(=O)Nc1c(C)cccc1C#N [Compound 1357]	10 to 20
COc1ccc(NC(=O)c2cccc(-c3cnccn3)c2)cc1S(=O)(=O)Nc1c(C)cccc1C [Compound 1222]	10 to 20
COc1ccc(NC(=O)c2csc3c2C2CCN3CC2)cc1S(=O)(=O)Nc1c(C)cccc1C [Compound 1945]	10 to 20
COc1ccc(NC(=O)c2ccc3nsnc3c2)cc1S(=O)(=O)Nc1c(C)cccc1C [Compound 1240]	10 to 20
COc1ccc(NC(=O)c2cccc3ncccc23)cc1S(=O)(=O)Nc1c(C)cccc1C [Compound 1219]	20 to 100
CCOc1ncccc1C(=O)Nc1ccc(F)c(S(=O)(=O)Nc2ccc(Cl)cc2)c1 [Compound 704]	10 to 20
COc1ccc(NC(=O)c2nn(C(C)C)c3ccccc23)cc1S(=O)(=O)Nc1c(C)cccc1C [Compound 1109]	< 10
COc1ccc(NC(=O)c2ncc(-c3ccccc3)o2)cc1S(=O)(=O)Nc1c(C)cc(C)nc1C [Compound 1575]	20 to 100

Same assay, conditions: read-out: ADP GLO DRC: Mean Emax

Structure (SMILES)	Emax [%]
COc1ccc2oc(C(=O)Nc3ccc(OC)c(S(=O)(=O)Nc4c(C)cccc4C)c3)cc2c1 [Compound 1112]	160 to 199
COc1ccc(NC(=O)c2cnc(OC)c(C(F)(F)F)c2)cc1S(=O)(=O)Nc1c(C)cccc1C [Compound 1073]	123 to 159
COc1ccc(NC(=O)c2ccc3nc(C)ccc3c2)cc1S(=O)(=O)Nc1c(C)cccc1C [Compound 1118]	200 to 300
COc1ccc(NC(=O)c2cnc(-c3cccs3)[nH]2)cc1S(=O)(=O)Nc1ccc(Cl)cc1 [Compound 1938]	200 to 300
COc1ccc(NC(=O)c2ccc3ncn(C)c3c2)cc1S(=O)(=O)Nc1c(C)cccc1C [Compound 1238]	123 to 159
O=C(Nc1ccc(F)c(S(=O)(=O)Nc2ccc(Cl)cc2)c1)c1cccc(-n2cncn2)c1 [Compound 1220]	123 to 159
COc1ccc(NC(=O)c2ccncc2-c2ccccc2)cc1S(=O)(=O)Nc1c(C)cccc1C [Compound 1267]	123 to 159
COc1ccc(NC(=O)c2cc(-c3ccccc3)[nH]n2)cc1S(=O)(=O)Nc1c(C)cccc1C [Compound 1258]	200 to 300
COc1ccc(NC(=O)c2ccnn2-c2ccccc2)cc1S(=O)(=O)Nc1c(C)cccc1C [Compound 1061]	200 to 300
COc1ccc(NC(=O)c2cccc(-c3noc(C)n3)c2)cc1S(=O)(=O)Nc1c(C)cccc1C [Compound 1243]	200 to 300
COc1ccc(NC(=O)c2ccc3c(c2)C2CCCS2(=O)=N3)cc1S(=O)(=O)Nc1c(C)cccc1C (centres unmarked) [Compound 1016]	200 to 300
COc1ccc(NC(=O)c2cc3ccccc3n2C)cc1S(=O)(=O)Nc1c(C)cccc1C [Compound 1170]	123 to 159
COc1ccc(NC(=O)c2cc(-c3ccnn3C)c(Cl)s2)cc1S(=O)(=O)Nc1c(C)cccc1C [Compound 1079]	160 to 199
Cc1onc(-c2ccccc2Cl)c1C(=O)Nc1ccc(F)c(S(=O)(=O)Nc2ccc(Cl)cc2)c1 [Compound 728]	123 to 159
COc1ccc(NC(=O)c2cccc(-c3cncnc3)c2)cc1S(=O)(=O)Nc1c(C)cccc1C [Compound 1248]	160 to 199
COc1ccc(NC(=O)c2ccc(C)nc2OC)cc1S(=O)(=O)Nc1ccc(Cl)cc1 [Compound 1963]	160 to 199
COc1ccc(NC(=O)c2ccc(S(=O)(=O)N(C)C)cc2)cc1S(=O)(=O)Nc1c(C)cccc1C [Compound 1120]	160 to 199
COc1ccc(NC(=O)c2ncc(-c3ccccc3)o2)cc1S(=O)(=O)Nc1c(C)cccc1C#N [Compound 1357]	160 to 199
COc1ccc(NC(=O)c2cccc(-c3cnccn3)c2)cc1S(=O)(=O)Nc1c(C)cccc1C [Compound 1222]	200 to 300
COc1ccc(NC(=O)c2csc3c2C2CCN3CC2)cc1S(=O)(=O)Nc1c(C)cccc1C [Compound 1945]	160 to 199
COc1ccc(NC(=O)c2ccc3nsnc3c2)cc1S(=O)(=O)Nc1c(C)cccc1C [Compound 1240]	200 to 300
COc1ccc(NC(=O)c2cccc3ncccc23)cc1S(=O)(=O)Nc1c(C)cccc1C [Compound 1219]	160 to 199
CCOc1ncccc1C(=O)Nc1ccc(F)c(S(=O)(=O)Nc2ccc(Cl)cc2)c1 [Compound 704]	200 to 300
COc1ccc(NC(=O)c2nn(C(C)C)c3ccccc23)cc1S(=O)(=O)Nc1c(C)cccc1C [Compound 1109]	123 to 159
COc1ccc(NC(=O)c2ncc(-c3ccccc3)o2)cc1S(=O)(=O)Nc1c(C)cc(C)nc1C [Compound 1575]	123 to 159
